The values that follow come from patent publication US9878991B2, “TRPV1 antagonists including dihydroxy substituent and uses thereof” (Purdue Pharma L.P., priority 2007, dated 2018).

Data set [1] concerns TRPV1 receptor-mediated pain. The experiment in a line: Capsaicin-induced eye wipe test. Type of data set: in vivo. The settings on record: rat; for eye wipe value: pre-administration value 24. How it is done: Each experiment uses rats weighing between 200-260 g at the start of the experiment. The rats are group-housed and have free access to food and water at all times, except prior to oral administration of a compound of formula I when food is removed for 16 hours before dosing. A control group acts as a comparison to rats treated with a compound of formula I. The control group is administered the carrier for the compound of formula I. The volume of carrier administered to the control group is the same as the volume of carrier and compound of formula I administered to the test group.
To assess the effect of compounds of formula I on TRPV1 receptor-mediated pain, the capsaicin-induced eye wipe test is used (N. R. Gavva et al., “AMG 9810 [(E)-3-(4-t-Butylphenyl)-N-(2,3-dihydrobenzo[b][1,4]dioxin-6-yl)acrylamide], a Novel Vanilloid Receptor 1 (TRPV1) Antagonist with Antihyperalgesic Properties”, J. Pharmacol. Exp. Ther. 313:474-484 (2005)). The eye wipe test is a reliable high-throughput test of the effect of TRPV1 antagonists. Rats are given a single injection of 1, 3, 10 or 30 mg/kg of either a compound of formula I; 30 mg/kg of a control selected from Celebrex, indomethacin or naproxen; or carrier. At 1, 3 or 5 hours after drug administration, 3 μL of a 100 μM capsaicin solution (in 10% EtOH/PBS) is instilled in one eye of each animal with a pipette. The number of forelimb movements (touching or wiping of the capsaicin-treated eye) are counted during a 2 minute period following instillation of capsaicin into the eye.

Data set [2] is described as follows: Plasma concentration after administration to an animal. In kind it is in vivo.

Regarding `O=C(Nc1ccc(C(F)(F)F)cc1)N1CCC(F)(c2ncc([C@H](O)CO)cc2Cl)CC1` [Compound N1, (S)-4-(3-chloro-5-(1,2-dihydroxyethyl)pyridin-2-yl)-4-fluoro-N-(4-(trifluoromethyl)phenyl)piperidine-1-carboxamide], the eye wipe value is 3 in data set [1] (1 hour after administration), 1 in data set [1] (3 hours after administration) and 2 in data set [1] (5 hours after administration). Moreover, the “decrease of eye wipes relative to pre-administration value” in data set [1] (3 hours after administration) was found to be 96%; in data set [1] (5 hours after administration) it was 92%.
`CC(O)(CO)c1cnc(C2=CCN(C(=O)Nc3ccc(C(F)(F)F)cc3)CC2)c(Cl)c1` (stereo not shown) [Compound R6]: the “maximum plasma concentration relative to the maximum for compound 200” value in data set [2] is listed as 5.3 times.
As to `O=C(Nc1ccc(C(F)(F)F)cc1)N1CC=C(c2ncc([C@H](O)CO)cc2Cl)CC1` [Compound Z1, (S)-3-Chloro-5-(1,2-dihydroxy-ethyl)-3′,6′-dihydro-2′H-[2,4′]bipyridinyl-1′-carboxylic acid (4-trifluoromethyl-phenyl)amide], the “maximum plasma concentration relative to the maximum for compound 200” value in data set [2] is given as 2.5 times.
